HELM strings list units from the 5' end as sugar, base in round brackets, then linkage (d deoxyribose, r ribose, m 2'-O-methyl, p phosphodiester). Strings are as the collection lists them; they lack the last nucleoside at the 3' end of the tested compound. [moe] = 2'-O-(2-methoxyethyl) (MOE); [sp] = phosphorothioate linkage; [m5C] = 5-methylcytosine
Molecular target: LRRK2
Test: mouse, dose not given
Details: ASO

Substance	3 h FOB score [score 0-7]
RNA1{[moe](A)[sp].[moe](A)p.[moe](T)[sp].[moe](G)[sp].[moe](A)[sp].d(G)[sp].d(T)[sp].d(G)[sp].d([m5C])[sp].d(A)[sp].d(T)[sp].d(G)[sp].d(G)[sp].d([m5C])[sp].d(A)[sp].[moe](T)[sp].[moe]([m5C])p.[moe](A)[sp].[moe](A)}$$$$ (last 3' nucleoside missing)	3
RNA1{[moe](G)[sp].[moe]([m5C])p.[moe](T)p.[moe](T)p.[moe](T)[sp].d([m5C])[sp].d(A)[sp].d(T)[sp].d(A)[sp].d(G)[sp].d([m5C])[sp].d(T)[sp].d(T)[sp].d([m5C])[sp].d([m5C])[sp].[moe](A)p.[moe]([m5C])p.[moe]([m5C])[sp].[moe](A)}$$$$ (last 3' nucleoside missing)	0
RNA1{[moe](A)[sp].[moe](A)p.[moe](A)[sp].[moe](T)[sp].[moe](G)[sp].d(A)[sp].d(G)[sp].d(T)[sp].d(G)[sp].d([m5C])[sp].d(A)[sp].d(T)[sp].d(G)[sp].d(G)[sp].d([m5C])[sp].[moe](A)[sp].[moe](T)p.[moe]([m5C])[sp].[moe](A)}$$$$ (last 3' nucleoside missing)	4
RNA1{[moe](G)[sp].[moe]([m5C])p.[moe](A)[sp].[moe](A)[sp].[moe](G)[sp].d(T)[sp].d([m5C])[sp].d([m5C])[sp].d(A)[sp].d(A)[sp].d(A)[sp].d(T)[sp].d(G)[sp].d(T)[sp].d(G)[sp].[moe](T)[sp].[moe]([m5C])p.[moe](A)[sp].[moe](A)}$$$$ (last 3' nucleoside missing)	6
RNA1{[moe]([m5C])[sp].[moe]([m5C])p.[moe](A)p.[moe](T)p.[moe](A)[sp].d(T)[sp].d(T)[sp].d(T)[sp].d(A)[sp].d(G)[sp].d([m5C])[sp].d(T)[sp].d(T)[sp].d(A)[sp].d(T)[sp].[moe](G)p.[moe](A)p.[moe](T)[sp].[moe](G)}$$$$ (last 3' nucleoside missing)	7
RNA1{[moe](A)[sp].[moe](G)p.[moe](T)p.[moe](G)p.[moe]([m5C])[sp].d(A)[sp].d(T)[sp].d(G)[sp].d(G)[sp].d([m5C])[sp].d(A)[sp].d(T)[sp].d([m5C])[sp].d(A)[sp].d(A)[sp].[moe](A)p.[moe](A)p.[moe](A)[sp].[moe](T)}$$$$ (last 3' nucleoside missing)	1
RNA1{[moe](T)[sp].[moe](T)p.[moe](G)[sp].[moe](G)[sp].[moe]([m5C])[sp].d(T)[sp].d(G)[sp].d(G)[sp].d(A)[sp].d(A)[sp].d(A)[sp].d(T)[sp].d(G)[sp].d(A)[sp].d(G)[sp].[moe](T)[sp].[moe](G)p.[moe]([m5C])[sp].[moe](A)}$$$$ (last 3' nucleoside missing)	6
RNA1{[moe](T)[sp].[moe]([m5C])p.[moe](A)p.[moe](G)p.[moe](T)[sp].d(T)[sp].d([m5C])[sp].d([m5C])[sp].d(T)[sp].d(T)[sp].d([m5C])[sp].d(A)[sp].d(G)[sp].d(T)[sp].d([m5C])[sp].[moe](T)p.[moe]([m5C])p.[moe](A)[sp].[moe](A)}$$$$ (last 3' nucleoside missing)	4
RNA1{[moe](A)[sp].[moe](G)p.[moe](G)p.[moe]([m5C])p.[moe](A)[sp].d(T)[sp].d(T)[sp].d(T)[sp].d([m5C])[sp].d(A)[sp].d(T)[sp].d(A)[sp].d(T)[sp].d(A)[sp].d(G)[sp].[moe](T)p.[moe]([m5C])p.[moe](G)[sp].[moe](G)}$$$$ (last 3' nucleoside missing)	4
RNA1{[moe](A)[sp].[moe](T)p.[moe]([m5C])[sp].[moe](A)[sp].[moe](T)[sp].d(T)[sp].d(G)[sp].d([m5C])[sp].d(T)[sp].d(G)[sp].d([m5C])[sp].d(T)[sp].d([m5C])[sp].d(A)[sp].d(T)[sp].[moe](A)[sp].[moe](T)p.[moe]([m5C])[sp].[moe](T)}$$$$ (last 3' nucleoside missing)	6
RNA1{[moe](G)[sp].[moe](T)p.[moe](G)[sp].[moe]([m5C])[sp].[moe](A)[sp].d(A)[sp].d(G)[sp].d(T)[sp].d([m5C])[sp].d([m5C])[sp].d(A)[sp].d(A)[sp].d(A)[sp].d(T)[sp].d(G)[sp].[moe](T)[sp].[moe](G)p.[moe](T)[sp].[moe]([m5C])}$$$$ (last 3' nucleoside missing)	4
RNA1{[moe](G)[sp].[moe](T)p.[moe](A)p.[moe]([m5C])p.[moe]([m5C])[sp].d([m5C])[sp].d(T)[sp].d(T)[sp].d(T)[sp].d([m5C])[sp].d([m5C])[sp].d(A)[sp].d(T)[sp].d(G)[sp].d(T)[sp].[moe](G)p.[moe](A)p.[moe](A)[sp].[moe]([m5C])}$$$$ (last 3' nucleoside missing)	1
RNA1{[moe](G)[sp].[moe](A)p.[moe](A)[sp].[moe](A)[sp].[moe](T)[sp].d(G)[sp].d(A)[sp].d(G)[sp].d(T)[sp].d(G)[sp].d([m5C])[sp].d(A)[sp].d(T)[sp].d(G)[sp].d(G)[sp].[moe]([m5C])[sp].[moe](A)p.[moe](T)[sp].[moe]([m5C])}$$$$ (last 3' nucleoside missing)	7
RNA1{[moe](G)[sp].[moe](T)p.[moe]([m5C])p.[moe](A)p.[moe]([m5C])[sp].d([m5C])[sp].d(T)[sp].d(T)[sp].d(T)[sp].d([m5C])[sp].d([m5C])[sp].d([m5C])[sp].d(A)[sp].d(A)[sp].d(T)[sp].[moe](G)p.[moe]([m5C])p.[moe](T)[sp].[moe](T)}$$$$ (last 3' nucleoside missing)	0
RNA1{[moe]([m5C])[sp].[moe](T)p.[moe](T)[sp].[moe]([m5C])[sp].[moe](A)[sp].d(G)[sp].d(T)[sp].d(T)[sp].d([m5C])[sp].d([m5C])[sp].d(T)[sp].d(T)[sp].d([m5C])[sp].d(A)[sp].d(G)[sp].[moe](T)[sp].[moe]([m5C])p.[moe](T)[sp].[moe]([m5C])}$$$$ (last 3' nucleoside missing)	6
RNA1{[moe](A)[sp].[moe](G)p.[moe](T)[sp].[moe](T)[sp].[moe]([m5C])[sp].d([m5C])[sp].d(T)[sp].d(T)[sp].d([m5C])[sp].d(A)[sp].d(G)[sp].d(T)[sp].d([m5C])[sp].d(T)[sp].d([m5C])[sp].[moe](A)p.[moe](A)p.[moe](G)[sp].[moe](G)}$$$$ (last 3' nucleoside missing)	7
RNA1{[moe](T)[sp].[moe](T)p.[moe](G)[sp].[moe]([m5C])[sp].[moe](T)[sp].d(G)[sp].d([m5C])[sp].d(T)[sp].d([m5C])[sp].d(A)[sp].d(T)[sp].d(A)[sp].d(T)[sp].d([m5C])[sp].d(T)[sp].[moe](A)[sp].[moe](A)p.[moe](A)[sp].[moe](G)}$$$$ (last 3' nucleoside missing)	3
RNA1{[moe](A)[sp].[moe](T)p.[moe](G)[sp].[moe]([m5C])[sp].[moe](T)[sp].d(T)[sp].d(T)[sp].d([m5C])[sp].d(A)[sp].d(T)[sp].d(A)[sp].d(G)[sp].d([m5C])[sp].d(T)[sp].d(T)[sp].[moe]([m5C])[sp].[moe]([m5C])p.[moe](A)[sp].[moe]([m5C])}$$$$ (last 3' nucleoside missing)	2
